Reference: PubChem BioAssay (NCI)
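Protocol summary: plate cells (96-well), add compound at 5 concentrations, incubate 48 h, interpolate endpoints linearly. TGI: concentration producing complete growth inhibition.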

Key:
Experiment in all cases: growth of human tumour cells (NCI), 48 h
M14 melanoma = system: M14 melanoma
DMS 114 small cell lung = system: DMS 114 small cell lung
CAKI-1 renal = system: CAKI-1 renal
HCT-15 colon = system: HCT-15 colon
HL-60(TB) leukemia = system: HL-60(TB) leukemia
HCC-2998 colon = system: HCC-2998 colon
RPMI-8226 leukemia = system: RPMI-8226 leukemia
COLO 205 colon = system: COLO 205 colon
HT29 colon = system: HT29 colon
KM12 colon = system: KM12 colon
SNB-75 CNS = system: SNB-75 CNS
A549 NSCLC = system: A549 NSCLC
NCI-H522 lung = system: NCI-H522 lung
SF-268 CNS = system: SF-268 CNS
SNB-78 CNS = system: SNB-78 CNS
ACHN renal = system: ACHN renal
UO-31 renal = system: UO-31 renal
SK-MEL-2 melanoma = system: SK-MEL-2 melanoma
A498 renal = system: A498 renal
LXFL 529 NSCLC = system: LXFL 529 NSCLC
EKVX NSCLC = system: EKVX NSCLC
SK-MEL-28 melanoma = system: SK-MEL-28 melanoma
SN12C renal = system: SN12C renal
SF-539 CNS = system: SF-539 CNS
KM20L2 colon = system: KM20L2 colon
RXF-631 renal = system: RXF-631 renal
DLD-1 colon = system: DLD-1 colon
SNB-19 CNS = system: SNB-19 CNS
UACC-257 melanoma = system: UACC-257 melanoma
HCT-116 colon = system: HCT-116 colon
NCI-H226 lung = system: NCI-H226 lung
CCRF-CEM leukemia = system: CCRF-CEM leukemia
MALME-3M melanoma = system: MALME-3M melanoma
OVCAR-5 ovarian = system: OVCAR-5 ovarian
OVCAR-8 ovarian = system: OVCAR-8 ovarian
UACC-62 melanoma = system: UACC-62 melanoma
M19-MEL melanoma = system: M19-MEL melanoma
SW-620 colon = system: SW-620 colon
LOX IMVI melanoma = system: LOX IMVI melanoma
SK-OV-3 ovarian = system: SK-OV-3 ovarian
MOLT-4 leukemia = system: MOLT-4 leukemia
HOP-62 NSCLC = system: HOP-62 NSCLC
SF-295 CNS = system: SF-295 CNS
OVCAR-3 ovarian = system: OVCAR-3 ovarian
XF 498 CNS = system: XF 498 CNS
K-562 leukemia = system: K-562 leukemia
RXF 393 renal = system: RXF 393 renal
OVCAR-4 ovarian = system: OVCAR-4 ovarian
NCI-H23 lung = system: NCI-H23 lung
786-0 renal = system: 786-0 renal
HOP-92 NSCLC = system: HOP-92 NSCLC
NCI-H460 lung = system: NCI-H460 lung
DMS 273 small cell lung = system: DMS 273 small cell lung
SK-MEL-5 melanoma = system: SK-MEL-5 melanoma
IGROV1 ovarian = system: IGROV1 ovarian
TK-10 renal = system: TK-10 renal
SR leukemia = system: SR leukemia
U251 CNS = system: U251 CNS

Measured: TGI

CCNC(=O)N(CC)CN(CC)C(=O)NCC
not listed: RXF 393 renal | OVCAR-4 ovarian | NCI-H23 lung | 786-0 renal | HOP-92 NSCLC | NCI-H460 lung | DMS 273 small cell lung | SK-MEL-5 melanoma | IGROV1 ovarian | TK-10 renal | SR leukemia | U251 CNS
> 100 µM: all other assays above

CCOC(=O)C(C)c1c(C(=O)c2ccc(C)nc2)c2ccccc2n1C (stereo not drawn)
not listed: UO-31 renal | A498 renal | SF-539 CNS | SNB-19 CNS | HCT-116 colon | NCI-H226 lung | SR leukemia | U251 CNS
> 100 µM: all other assays above

COc1cccc2c1N[S@](=O)S2
not listed: DMS 114 small cell lung | HCC-2998 colon | COLO 205 colon | A498 renal | OVCAR-5 ovarian | OVCAR-8 ovarian | HOP-62 NSCLC | RXF 393 renal | OVCAR-4 ovarian | NCI-H460 lung | SK-MEL-5 melanoma
> 100 µM: all other assays above
